This passage reports Activity, IC50 and inhibition results from ChEMBL document CHEMBL3875218, “Bifunctional conjugates with potent inhibitory activity towards cyclooxygenase and histone deacetylase” (Bioorg Med Chem, 2017).

Data set [1] deals with LNCaP. Put plainly: Induction of cell cycle arrest in human LNCAP cells assessed as accumulation at G1 phase at 40 uM after 24 hrs by propidium iodide staining based FACS analysis (reference value: 69.5%). It is filed as functional.
The subject of data set [2] is LNCaP. Put plainly: Induction of cell cycle arrest in human LNCAP cells assessed as accumulation at S phase at 40 uM after 24 hrs by propidium iodide staining based FACS analysis (reference value: […]). It counts as functional.
Data set [3] deals with LNCaP. Nature of the data set: Induction of cell cycle arrest in human LNCAP cells assessed as accumulation at G2 phase at 40 uM after 24 hrs by propidium iodide staining based FACS analysis (reference value: 1.08%). It is filed as functional. (In flow cytometry, cells or beads pass a laser one at a time.)
Data set [4] has as its system LNCaP. Put plainly: Induction of cell cycle arrest in human LNCAP cells assessed as accumulation at lesser G1 phase at 40 uM after 24 hrs by propidium iodide staining based FACS analysis (reference value: 1.59%). It is filed as functional.
In data set [5] the test system is LNCaP. Put plainly: Induction of cell cycle arrest in human LNCAP cells assessed as accumulation at greater G2 phase at 40 uM after 24 hrs by propidium iodide staining based FACS analysis (reference value: 0.20%). It is filed as functional.
For a further data set, the target named is Histone deacetylase 1 (Homo sapiens, UniProt Q13547). Put plainly: Inhibition of HDAC1 (unknown origin) after 24 hrs by SAMDI mass spectroscopic analysis.
The target in a further data set is Histone deacetylase 2 (Homo sapiens, UniProt Q92769). Put plainly: Inhibition of HDAC2 (unknown origin) after 24 hrs by SAMDI mass spectroscopic analysis.
In the next data set the target is Histone deacetylase 3 (Homo sapiens, UniProt O15379). Nature of the data set: Inhibition of HDAC3 (unknown origin) after 5 hrs by SAMDI mass spectroscopic analysis.
In data set [6] the target is T1, Protein deacetylase HDAC6 (Homo sapiens, UniProt Q9UBN7).
T1 sequence (Q9UBN7 whole entry): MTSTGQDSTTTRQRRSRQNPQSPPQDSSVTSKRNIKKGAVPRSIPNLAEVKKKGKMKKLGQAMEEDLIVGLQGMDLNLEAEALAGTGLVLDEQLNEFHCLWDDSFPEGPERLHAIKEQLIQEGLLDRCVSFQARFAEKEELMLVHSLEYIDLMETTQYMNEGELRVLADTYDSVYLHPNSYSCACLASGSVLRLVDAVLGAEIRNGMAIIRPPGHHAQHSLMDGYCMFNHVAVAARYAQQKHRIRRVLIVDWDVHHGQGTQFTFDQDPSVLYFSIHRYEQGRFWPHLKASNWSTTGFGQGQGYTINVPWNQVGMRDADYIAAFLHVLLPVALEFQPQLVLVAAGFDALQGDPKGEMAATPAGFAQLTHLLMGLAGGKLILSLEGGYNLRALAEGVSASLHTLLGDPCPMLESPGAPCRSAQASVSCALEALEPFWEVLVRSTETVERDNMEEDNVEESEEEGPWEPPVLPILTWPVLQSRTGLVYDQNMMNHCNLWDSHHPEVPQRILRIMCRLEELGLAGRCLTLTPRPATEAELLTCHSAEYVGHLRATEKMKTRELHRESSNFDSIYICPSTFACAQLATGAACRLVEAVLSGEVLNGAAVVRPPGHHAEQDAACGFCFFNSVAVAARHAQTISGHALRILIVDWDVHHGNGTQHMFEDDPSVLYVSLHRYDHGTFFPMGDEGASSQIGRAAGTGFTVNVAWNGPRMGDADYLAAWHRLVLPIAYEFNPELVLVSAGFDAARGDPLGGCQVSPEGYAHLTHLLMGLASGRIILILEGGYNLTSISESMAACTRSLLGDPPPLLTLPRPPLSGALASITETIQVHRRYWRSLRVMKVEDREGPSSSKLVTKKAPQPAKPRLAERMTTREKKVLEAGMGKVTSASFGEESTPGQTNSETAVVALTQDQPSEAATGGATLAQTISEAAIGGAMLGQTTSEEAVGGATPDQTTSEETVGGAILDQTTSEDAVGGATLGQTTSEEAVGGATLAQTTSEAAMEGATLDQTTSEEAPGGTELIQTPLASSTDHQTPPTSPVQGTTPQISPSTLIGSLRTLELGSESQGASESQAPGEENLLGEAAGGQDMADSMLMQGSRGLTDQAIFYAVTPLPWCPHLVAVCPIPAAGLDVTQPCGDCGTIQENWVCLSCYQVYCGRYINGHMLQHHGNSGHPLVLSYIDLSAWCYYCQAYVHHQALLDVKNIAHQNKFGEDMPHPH
Nature of the data set: Inhibition of HDAC6 (unknown origin) after 20 hrs by SAMDI mass spectroscopic analysis.

A further data set deals with T2, Histone deacetylase 8 (Homo sapiens, UniProt Q9BY41).
T2 sequence (Q9BY41 whole entry): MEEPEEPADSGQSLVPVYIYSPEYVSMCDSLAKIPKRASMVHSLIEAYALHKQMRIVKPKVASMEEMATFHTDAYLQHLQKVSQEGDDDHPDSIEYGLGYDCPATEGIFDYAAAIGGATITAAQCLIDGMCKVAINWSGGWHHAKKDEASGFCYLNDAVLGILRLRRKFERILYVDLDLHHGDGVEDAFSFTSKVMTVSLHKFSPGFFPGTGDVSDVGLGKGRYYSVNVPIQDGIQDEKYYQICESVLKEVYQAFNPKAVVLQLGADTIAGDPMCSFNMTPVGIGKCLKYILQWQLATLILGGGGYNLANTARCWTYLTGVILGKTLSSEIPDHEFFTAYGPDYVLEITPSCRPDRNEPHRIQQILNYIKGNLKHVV
Nature of the data set: Inhibition of HDAC8 (unknown origin) after 2.5 hrs by SAMDI mass spectroscopic analysis.

Data set [7] deals with T3, Prostaglandin G/H synthase 2 (Homo sapiens) (UniProt P35354).
T3 sequence (whole entry): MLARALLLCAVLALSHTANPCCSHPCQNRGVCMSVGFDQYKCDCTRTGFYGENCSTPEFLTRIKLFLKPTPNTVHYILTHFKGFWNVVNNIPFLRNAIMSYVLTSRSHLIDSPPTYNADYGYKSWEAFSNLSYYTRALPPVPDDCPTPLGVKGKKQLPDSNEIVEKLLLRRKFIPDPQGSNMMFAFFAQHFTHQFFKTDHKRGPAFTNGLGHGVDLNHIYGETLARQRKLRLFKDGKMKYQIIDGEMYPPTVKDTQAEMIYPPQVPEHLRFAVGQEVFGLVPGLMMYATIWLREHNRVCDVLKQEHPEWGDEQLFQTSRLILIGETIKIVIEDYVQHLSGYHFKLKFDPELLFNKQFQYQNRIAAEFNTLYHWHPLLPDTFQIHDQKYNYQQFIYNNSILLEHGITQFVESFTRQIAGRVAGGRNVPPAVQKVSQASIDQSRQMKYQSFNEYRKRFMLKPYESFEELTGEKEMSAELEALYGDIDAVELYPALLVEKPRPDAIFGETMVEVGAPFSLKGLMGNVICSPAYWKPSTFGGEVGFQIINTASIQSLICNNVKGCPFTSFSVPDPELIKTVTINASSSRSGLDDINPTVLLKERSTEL
Put plainly: Inhibition of recombinant human COX2 at 10 uM using arachidonic acid as substrate preincubated for 15 mins followed by substrate addition for 2 mins by Cayman based fluorescence assay.

The nature of data set [8]: Cytotoxicity against human MCF7 cells assessed as cell growth inhibition after 72 hrs by MTT assay. The settings on record: MCF7, 72 h. It counts as functional, cell-based. Background: Tetrazolium assays rely on reduction of a dye to a coloured formazan, in cell work by metabolically active cells.
Data set [9] in a line: Cytotoxicity against human A549 cells assessed as cell growth inhibition after 72 hrs by MTT assay. It counts as functional, cell-based. The settings on record: A549, 72 h.
A short description of data set [10]: Cytotoxicity against human HCT116 cells assessed as cell growth inhibition after 72 hrs by MTT assay. The settings on record: HCT-116, 72 h. It counts as functional, cell-based.
Data set [11] can be described thus: Cytotoxicity against human LNCAP cells assessed as cell growth inhibition after 72 hrs by MTT assay. It is filed as functional, cell-based.
The nature of data set [12]: Cytotoxicity against human DU145 cells assessed as cell growth inhibition after 72 hrs by MTT assay. It counts as functional, cell-based. Particulars: DU-145, 72 h.
The nature of data set [13]: Cytotoxicity against African green monkey Vero cells assessed as cell growth inhibition after 72 hrs by MTT assay. The settings on record: African green monkey (Chlorocebus sabaeus). It counts as toxicity, cell-based.
Data set [14] can be described thus: Cytotoxicity against human HeLa cells assessed as cell growth inhibition after 72 hrs by MTT assay.
Data set [15] deals with T4, Protein deacetylase HDAC6 (Homo sapiens) (UniProt Q9UBN7).
T4 sequence (whole entry): T1 sequence (Q9UBN7 whole entry)
Put plainly: Inhibition of HDAC6 in human LNCAP cells assessed as acetylated tubulin accumulation in cytosol at 1.5 uM after 24 hrs by Western blot analysis. It counts as cell-based. A general note: A western blot detects proteins with antibodies after separation by electrophoresis.

The test system of data set [16] is LNCaP. Nature of the data set: Inhibition of class 1 HDAC in human LNCAP cells assessed as acetylated histone H4 accumulation at 1.5 uM after 24 hrs by Western blot analysis. It is filed as cell-based.
Data set [17] deals with LNCaP. Put plainly: Inhibition of HDAC in human LNCAP cells assessed as down regulation of COX2 expression at 1.5 uM after 24 hrs by Western blot analysis. It is filed as cell-based.
Data set [18] relates to LNCaP. Nature of the data set: Induction of cell cycle arrest in human LNCAP cells assessed as accumulation at lesser G1 phase at 2.5 uM after 24 hrs by propidium iodide staining based FACS analysis (reference value: 1.59%). It is filed as functional.
Data set [19] relates to LNCaP. Put plainly: Induction of cell cycle arrest in human LNCAP cells assessed as accumulation at G1 phase at 2.5 uM after 24 hrs by propidium iodide staining based FACS analysis (reference value: 69.5%). It is filed as functional.
For data set [20], the system named is LNCaP. Nature of the data set: Induction of cell cycle arrest in human LNCAP cells assessed as accumulation at S phase at 2.5 uM after 24 hrs by propidium iodide staining based FACS analysis (reference value: […]). It counts as functional.
Data set [21] relates to LNCaP. Put plainly: Induction of cell cycle arrest in human LNCAP cells assessed as accumulation at G2 phase at 2.5 uM after 24 hrs by propidium iodide staining based FACS analysis (reference value: 1.08%). It counts as functional.
Data set [22] has as its system LNCaP. Put plainly: Induction of cell cycle arrest in human LNCAP cells assessed as accumulation at greater G2 phase at 2.5 uM after 24 hrs by propidium iodide staining based FACS analysis (reference value: 0.20%). It counts as functional.
Another data set concerns BEAS2B. The settings on record: Homo sapiens, at 1 µM.

Calls of active or inactive are those of the source. The calls are words filed in the database; no cut-off is given here.

Sequence of Histone deacetylase 3 (O15379 whole entry): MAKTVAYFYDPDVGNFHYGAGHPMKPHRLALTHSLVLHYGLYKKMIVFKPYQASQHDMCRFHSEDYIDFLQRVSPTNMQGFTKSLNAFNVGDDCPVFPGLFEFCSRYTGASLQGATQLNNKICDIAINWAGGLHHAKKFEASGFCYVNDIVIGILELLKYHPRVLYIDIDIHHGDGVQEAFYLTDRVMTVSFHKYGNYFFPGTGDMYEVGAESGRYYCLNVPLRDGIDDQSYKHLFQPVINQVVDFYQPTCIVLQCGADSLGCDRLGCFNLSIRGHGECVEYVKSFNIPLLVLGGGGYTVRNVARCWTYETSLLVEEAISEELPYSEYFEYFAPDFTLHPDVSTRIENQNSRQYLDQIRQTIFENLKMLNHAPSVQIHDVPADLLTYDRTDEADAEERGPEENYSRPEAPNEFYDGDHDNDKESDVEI
Sequence of Histone deacetylase 1 (Q13547 whole entry): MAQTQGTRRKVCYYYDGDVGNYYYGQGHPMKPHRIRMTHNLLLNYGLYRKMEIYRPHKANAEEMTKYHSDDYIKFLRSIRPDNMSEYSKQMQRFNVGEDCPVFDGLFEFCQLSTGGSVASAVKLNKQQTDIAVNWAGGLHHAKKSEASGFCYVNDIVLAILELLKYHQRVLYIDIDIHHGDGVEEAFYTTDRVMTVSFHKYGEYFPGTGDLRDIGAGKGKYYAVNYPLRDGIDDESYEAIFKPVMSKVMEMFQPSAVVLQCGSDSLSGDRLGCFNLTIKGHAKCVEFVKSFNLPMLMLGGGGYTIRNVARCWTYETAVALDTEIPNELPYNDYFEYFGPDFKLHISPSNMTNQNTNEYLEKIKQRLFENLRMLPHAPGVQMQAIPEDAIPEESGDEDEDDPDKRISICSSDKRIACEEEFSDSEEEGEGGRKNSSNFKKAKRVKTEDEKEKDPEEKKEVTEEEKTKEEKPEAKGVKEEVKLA
Sequence of Histone deacetylase 2 (Q92769 whole entry): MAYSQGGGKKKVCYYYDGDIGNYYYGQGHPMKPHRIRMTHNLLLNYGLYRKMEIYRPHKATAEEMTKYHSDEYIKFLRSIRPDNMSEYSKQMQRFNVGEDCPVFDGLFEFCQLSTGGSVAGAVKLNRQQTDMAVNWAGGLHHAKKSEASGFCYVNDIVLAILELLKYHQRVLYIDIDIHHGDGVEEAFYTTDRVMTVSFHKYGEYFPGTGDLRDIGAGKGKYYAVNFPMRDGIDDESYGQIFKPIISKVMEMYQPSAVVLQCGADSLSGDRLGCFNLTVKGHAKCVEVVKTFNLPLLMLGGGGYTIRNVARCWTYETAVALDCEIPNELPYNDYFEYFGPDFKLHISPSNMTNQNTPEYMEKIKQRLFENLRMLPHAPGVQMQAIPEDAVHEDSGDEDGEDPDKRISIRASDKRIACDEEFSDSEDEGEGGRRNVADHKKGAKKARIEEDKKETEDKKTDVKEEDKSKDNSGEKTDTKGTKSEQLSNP
Description for BEAS2B: Inhibition of HDAC in human BEAS2B cells assessed as reduction of NTHi-induced NFkappaB activation at 1 uM preincubated for 1 hr followed by NTHi stimulation for 5 hrs by luciferase reporter gene assay

As for `Cc1ccc(-c2cc(C(F)(F)F)nn2-c2ccc(S(N)(=O)=O)cc2)cc1` [CELECOXIB], the Activity came out at 69.2% in the data set on LNCaP [1]; 28.4% with LNCaP [2]; 0.85% in the data set with LNCaP [3]; 0.59% in the data set with LNCaP [4]; 0.35% with LNCaP [5].
Regarding `COC(=O)Cc1c(C)n(Cc2ccc(-c3cn(CCCCCCC(=O)NO)nn3)cc2)c2ccc(OC)cc12`, the 50% inhibitory concentration (IC50) against Histone deacetylase 1 turned out to be 0.089 µM; on Histone deacetylase 2 it was 0.407 µM; on Histone deacetylase 3 it was 0.035 µM; in data set [6], 0.01 µM; on Histone deacetylase 8, 0.135 µM; in data set [8], 9.61 µM. For the same molecule, the half-inhibitory concentration (IC50) was found to be 8.22 µM in data set [9]; 1.67 µM in data set [10]; 1.35 µM in data set [11]; 8.17 µM in data set [12]; 4.02 µM in data set [14]. Moreover, the inhibition in data set [7] is 50.8%. Moreover, in [13], the half-inhibitory concentration (IC50) at 72 h was 5.82 µM. Further, the inhibition entry (in [15]; in the data set on LNCaP [16]; in the data set on LNCaP [17]; with BEAS2B) was “Active” in each case. For the same molecule, the Activity in the data set on LNCaP [18] is given as 0.053%; in the data set on LNCaP [19] it was 46.7%; in the data set on LNCaP [20] it was 47.1%; in the data set on LNCaP [21], 1.87%; in the data set with LNCaP [22] it was 2.06%.

By IC50 is commonly meant the concentration at which inhibition is half-maximal. As usually defined, the inhibition is the share of the control response that was lost under treatment.
